The source of these data is ChEMBL document CHEMBL1201862, “PubChem BioAssay data set” (2004).

Active and inactive are the calls of the source.

Assay [1] in a line: MIN6 cell viability loss – mouse insulinoma, cytotoxicity control, dose response (AID 2122).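 Also: confirmatory high-throughput counterscreen run to flag cytotoxic compounds.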 Type of assay: functional.
Assay [2] can be described thus: decrease of insulin promoter-GFP reporter – imaging, high-content screening, mouse beta cells (AID 1628). The following applies: MIN6. Type of assay: functional.
Assay [3] deals with T1, Short transient receptor potential channel 4 (Mus musculus, UniProt Q9QUQ5).
T1 sequence (Q9QUQ5 whole entry): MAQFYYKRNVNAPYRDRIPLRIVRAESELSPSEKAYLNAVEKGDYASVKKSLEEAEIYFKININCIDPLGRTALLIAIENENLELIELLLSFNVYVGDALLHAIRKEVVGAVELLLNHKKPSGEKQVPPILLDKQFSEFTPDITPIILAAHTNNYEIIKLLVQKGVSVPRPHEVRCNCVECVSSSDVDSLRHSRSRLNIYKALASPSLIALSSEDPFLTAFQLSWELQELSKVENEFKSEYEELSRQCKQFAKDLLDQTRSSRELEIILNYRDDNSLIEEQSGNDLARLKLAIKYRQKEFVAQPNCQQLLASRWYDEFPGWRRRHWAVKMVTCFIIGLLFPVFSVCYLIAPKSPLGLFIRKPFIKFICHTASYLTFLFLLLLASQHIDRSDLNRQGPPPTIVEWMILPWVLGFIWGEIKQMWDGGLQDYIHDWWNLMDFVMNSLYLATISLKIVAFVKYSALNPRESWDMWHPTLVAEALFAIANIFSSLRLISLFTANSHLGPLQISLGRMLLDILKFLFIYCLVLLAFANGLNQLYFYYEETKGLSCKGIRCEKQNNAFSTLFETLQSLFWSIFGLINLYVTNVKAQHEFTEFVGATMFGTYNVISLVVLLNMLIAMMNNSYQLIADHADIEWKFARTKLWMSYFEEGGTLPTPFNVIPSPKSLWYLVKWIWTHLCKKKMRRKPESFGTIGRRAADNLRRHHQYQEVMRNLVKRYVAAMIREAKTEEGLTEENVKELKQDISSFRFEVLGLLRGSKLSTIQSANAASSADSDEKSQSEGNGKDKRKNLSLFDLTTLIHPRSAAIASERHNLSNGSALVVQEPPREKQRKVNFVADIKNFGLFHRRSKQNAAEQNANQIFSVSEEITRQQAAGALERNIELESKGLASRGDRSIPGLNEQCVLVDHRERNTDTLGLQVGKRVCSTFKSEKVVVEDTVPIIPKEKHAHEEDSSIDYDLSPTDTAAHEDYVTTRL
Nature of the assay: calcium entry via TRPC4 opening agents – cell-based, HEK293 TRPC4/mu-opioid, Fluo-4 calcium, dose response (AID 434937). Type of assay: functional.

Assay [4] in a line: A cytotoxicity screen of small molecule inhibitors of the PhoP region in Salmonella typhi identified in the primary screen. [Related pubchem assays: 1850, 1864, 1985 ]. Type of assay: functional.
Assay [5] can be described thus: non-specific 3'UTR reporter inhibition in Clone20-Shn3RL – cell-based, Renilla luciferase, cherry-picked, counter-screen for Shn3 inhibitor project, dose response (AID 624133). It is filed as functional.
A short description of assay [6]: loss of viability in HepG2 cells – cell-based, CellTiter-Glo, cherry-picked, cytotoxicity control for Shn3 inhibitor project, dose response (AID 624134). It is filed as functional. (In general: ATP-based viability assays read luminescence as a measure of living cells.)
Assay [7] in a line: reduction of Shn3 3'UTR-driven luciferase in osteoblasts – cell-based, Clone20 osteoblasts, firefly luciferase, cherry-picked, dose response (AID 624132).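 Also: firefly luciferase luminescence from reporter carrying the Shn3 3'UTR in osteoblasts.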 It is filed as functional.
The target in assay [8] is Luciferin 4-monooxygenase (Photinus pyralis, UniProt P08659). Put plainly: inhibition of purified Photinus pyralis luciferase – biochemical, luminescence, dose response (AID 1891).
Sequence of Luciferin 4-monooxygenase (P08659 whole entry): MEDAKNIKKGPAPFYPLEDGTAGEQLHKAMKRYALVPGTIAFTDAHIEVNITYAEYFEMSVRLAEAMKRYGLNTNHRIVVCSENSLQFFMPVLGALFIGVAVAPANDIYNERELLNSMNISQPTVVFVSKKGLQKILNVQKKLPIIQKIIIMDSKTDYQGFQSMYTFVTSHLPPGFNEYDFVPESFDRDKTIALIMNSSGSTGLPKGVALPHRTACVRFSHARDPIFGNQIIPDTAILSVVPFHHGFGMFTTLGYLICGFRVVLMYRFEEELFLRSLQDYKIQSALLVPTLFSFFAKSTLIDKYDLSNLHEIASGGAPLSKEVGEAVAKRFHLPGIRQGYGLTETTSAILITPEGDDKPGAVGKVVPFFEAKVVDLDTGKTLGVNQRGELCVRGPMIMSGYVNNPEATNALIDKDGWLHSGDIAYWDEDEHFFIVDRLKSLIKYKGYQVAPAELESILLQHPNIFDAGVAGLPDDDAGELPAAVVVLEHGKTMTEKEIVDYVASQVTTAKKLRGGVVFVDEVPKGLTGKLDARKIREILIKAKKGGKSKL
Assay [9] can be described thus: Luminescence Cell-Based Dose Confirmation HTS to Identify Inhibitors of Platelet Dense Granule Release. [Related pubchem assays: 1663 (Primary HTS), 1678 (Summary of Project)]. It is filed as functional.
The test system of a further assay is HEK293. Put plainly: EBV LMP1 TES2 canonical NF-kB signalling blockers – cell-based, HEK293, luciferase, cherry-pick, dose response (AID 588343). It is filed as functional. The following applies: Homo sapiens.
Assay [10] deals with T2, High affinity choline transporter 1 (Homo sapiens, UniProt Q9GZV3).
T2 sequence (Q9GZV3 whole entry): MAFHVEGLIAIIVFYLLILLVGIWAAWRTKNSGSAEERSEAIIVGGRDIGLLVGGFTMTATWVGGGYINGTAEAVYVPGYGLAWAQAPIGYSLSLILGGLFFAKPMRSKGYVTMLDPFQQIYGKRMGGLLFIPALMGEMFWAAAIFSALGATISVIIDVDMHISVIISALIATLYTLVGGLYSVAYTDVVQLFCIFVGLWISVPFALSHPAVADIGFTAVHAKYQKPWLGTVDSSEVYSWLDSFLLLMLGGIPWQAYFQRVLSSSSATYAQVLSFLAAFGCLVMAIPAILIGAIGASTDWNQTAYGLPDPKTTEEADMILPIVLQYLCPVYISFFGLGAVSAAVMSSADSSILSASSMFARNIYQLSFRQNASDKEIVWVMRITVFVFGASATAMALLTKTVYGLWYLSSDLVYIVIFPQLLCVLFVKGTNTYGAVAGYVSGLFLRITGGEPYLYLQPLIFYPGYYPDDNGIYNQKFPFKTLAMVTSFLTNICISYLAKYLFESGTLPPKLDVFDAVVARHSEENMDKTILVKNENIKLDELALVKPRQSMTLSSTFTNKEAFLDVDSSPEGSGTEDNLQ
Put plainly: human choline transporter blockers, potency – cell-based, 5-point CRC, membrane potential dye, dose response (AID 504840). Type of assay: functional.

Assay [11] is described as follows: microbe, parasite or virus in culture. It is filed as functional. The following applies: Mycobacterium tuberculosis.
The next assay has as its target T3, Hexokinase (Trypanosoma brucei, UniProt Q38C41).
T3 sequence (Q38C41 whole entry): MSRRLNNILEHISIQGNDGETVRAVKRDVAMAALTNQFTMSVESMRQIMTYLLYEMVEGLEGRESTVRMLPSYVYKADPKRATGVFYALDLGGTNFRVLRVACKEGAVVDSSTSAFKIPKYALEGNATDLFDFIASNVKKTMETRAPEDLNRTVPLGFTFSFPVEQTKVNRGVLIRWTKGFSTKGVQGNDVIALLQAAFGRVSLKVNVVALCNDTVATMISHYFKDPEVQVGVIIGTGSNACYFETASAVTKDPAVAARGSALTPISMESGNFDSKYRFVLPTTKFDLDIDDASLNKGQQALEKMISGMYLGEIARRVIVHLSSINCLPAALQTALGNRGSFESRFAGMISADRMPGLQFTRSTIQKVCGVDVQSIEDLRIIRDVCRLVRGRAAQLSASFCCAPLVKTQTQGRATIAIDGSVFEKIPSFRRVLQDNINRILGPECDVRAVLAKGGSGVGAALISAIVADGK
Nature of the assay: Confirmation assay for inhibitors of Trypanosoma brucei hexokinase 1-Analogue-first series. [Related pubchem assays (depositor defined):AID1430, AID1632, AID2516, AID2560, AID2579, AID2600, AID449725, AID492951]. Type of assay: functional.

The next assay deals with Nonstructural protein 1 (Influenza A virus, UniProt Q194T2). It is filed as functional, Influenza A virus (A/California/07/2009(H1N1)).
Sequence of Nonstructural protein 1 (Q194T2 whole entry): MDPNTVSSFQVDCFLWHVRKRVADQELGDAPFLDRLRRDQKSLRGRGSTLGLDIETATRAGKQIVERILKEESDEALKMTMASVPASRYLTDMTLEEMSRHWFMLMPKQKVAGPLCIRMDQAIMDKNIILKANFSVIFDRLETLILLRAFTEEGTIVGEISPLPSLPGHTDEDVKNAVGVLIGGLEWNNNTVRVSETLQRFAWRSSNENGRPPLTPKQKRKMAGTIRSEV
The next assay concerns the target T4, Leucine aminopeptidase (Plasmodium falciparum 3D7, UniProt Q8IL11).
T4 sequence (Q8IL11 whole entry): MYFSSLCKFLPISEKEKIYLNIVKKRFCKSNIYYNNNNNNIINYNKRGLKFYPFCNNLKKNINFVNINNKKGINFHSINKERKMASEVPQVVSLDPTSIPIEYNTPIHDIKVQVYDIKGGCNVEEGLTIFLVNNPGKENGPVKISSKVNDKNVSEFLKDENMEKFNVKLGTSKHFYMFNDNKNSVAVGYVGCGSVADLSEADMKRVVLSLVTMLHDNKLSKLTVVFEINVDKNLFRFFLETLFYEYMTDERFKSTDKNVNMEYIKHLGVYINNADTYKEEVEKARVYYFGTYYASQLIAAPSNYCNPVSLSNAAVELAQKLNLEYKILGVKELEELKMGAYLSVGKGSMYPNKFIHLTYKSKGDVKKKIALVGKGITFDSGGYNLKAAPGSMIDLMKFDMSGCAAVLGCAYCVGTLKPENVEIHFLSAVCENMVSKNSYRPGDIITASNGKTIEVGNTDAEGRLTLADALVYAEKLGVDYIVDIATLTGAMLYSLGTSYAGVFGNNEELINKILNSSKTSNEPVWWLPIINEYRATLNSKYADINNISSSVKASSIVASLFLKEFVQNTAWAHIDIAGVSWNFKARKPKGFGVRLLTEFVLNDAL
Nature of the assay: P. falciparum M17LAP inhibitors, primary screen, biochemical, fluorogenic H-Leu-NHMec substrate, 1536-well (AID 1619). It is filed as functional.

A further assay has as its target Estrogen receptor beta (Homo sapiens, UniProt Q92731).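 Also: recombinant ER-beta bound to coactivator SRC1 peptide in presence of estradiol agonist; inhibitors block coactivator peptide binding and lower the FRET signal.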
Another assay has as its target Cytochrome P450 2C19 (Homo sapiens, UniProt P33261). Put plainly: Cytochrome panel assay with activity outcomes. Panel member name: p450-cyp2c19 Compounds with AC50 equal or less than 10 uM are considered active. Type of assay: functional. The following applies: read-out: AC50.

Sequence of Estrogen receptor beta (Q92731 whole entry): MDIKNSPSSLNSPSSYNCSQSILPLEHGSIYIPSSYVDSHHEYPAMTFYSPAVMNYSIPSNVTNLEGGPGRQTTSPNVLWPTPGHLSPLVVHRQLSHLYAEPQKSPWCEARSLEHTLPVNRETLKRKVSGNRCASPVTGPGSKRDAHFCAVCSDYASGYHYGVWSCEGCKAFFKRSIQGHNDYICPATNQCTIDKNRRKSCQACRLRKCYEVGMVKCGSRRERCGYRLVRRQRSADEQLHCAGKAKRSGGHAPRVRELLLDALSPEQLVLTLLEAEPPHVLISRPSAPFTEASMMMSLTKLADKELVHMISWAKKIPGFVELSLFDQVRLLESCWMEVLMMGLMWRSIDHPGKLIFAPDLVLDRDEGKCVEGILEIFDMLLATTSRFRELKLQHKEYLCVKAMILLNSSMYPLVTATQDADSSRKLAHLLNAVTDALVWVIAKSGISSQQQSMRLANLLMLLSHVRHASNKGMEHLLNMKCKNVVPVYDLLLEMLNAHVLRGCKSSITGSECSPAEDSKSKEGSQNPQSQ
Sequence of Cytochrome P450 2C19 (P33261 whole entry): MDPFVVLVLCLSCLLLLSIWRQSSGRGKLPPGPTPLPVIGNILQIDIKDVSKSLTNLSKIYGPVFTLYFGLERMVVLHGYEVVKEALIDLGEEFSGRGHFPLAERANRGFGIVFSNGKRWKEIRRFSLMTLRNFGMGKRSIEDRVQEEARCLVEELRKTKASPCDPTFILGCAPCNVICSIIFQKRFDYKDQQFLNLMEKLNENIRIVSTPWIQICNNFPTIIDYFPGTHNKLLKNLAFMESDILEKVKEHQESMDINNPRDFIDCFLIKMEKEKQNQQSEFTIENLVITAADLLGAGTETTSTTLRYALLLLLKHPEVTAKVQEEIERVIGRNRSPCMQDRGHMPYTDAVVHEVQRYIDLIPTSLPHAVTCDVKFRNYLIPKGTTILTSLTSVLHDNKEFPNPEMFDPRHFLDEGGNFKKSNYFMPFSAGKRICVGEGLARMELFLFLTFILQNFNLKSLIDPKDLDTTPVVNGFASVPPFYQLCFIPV

For `CCc1ccc2c(c1)CCCN2C(=O)c1ccccc1C(=O)O`, the values for the half-maximal inhibitory concentration (IC50) in assay [1] and in assay [2] were 0.994 µM (active) and 1.56 µM (active), respectively.
In the case of `COc1ccc(CC(=O)NCC(c2ccc(OC)cc2)N(C)C)cc1` (stereo not given), the concentration for a half-maximal effect (EC50) (usually the concentration that produces a half-maximal response) in assay [3] is 0.668 µM (active).
As to `[O-][n+]1c2ccccc2cc2ccccc21`, the EC50 in [4] is > 50 µM (active).
Consider `Cn1c(=O)c2c(nc(NCc3ccco3)n2C/C=C/c2ccccc2)n(C)c1=O`, for which the AC50 (usually the concentration at which the activity in the assay is half-maximal) in assay [5] is 1.13 µM (active); in [6] it was 4.24 µM (active); in assay [7], 1.08 µM (active); with HEK293 it was 4.38 µM (active). The figures for the IC50 in assay [1] and in assay [2] were < 0.25 µM (active) and 0.41 µM (active), respectively. For the same compound, the concentration for a half-maximal effect (EC50) in assay [8] was > 112 µM (not active); in assay [9] it was 30 µM (active).
Consider `Brc1ccc2c(c1)C(OC1CN3CCC1CC3)c1ccccc1CS2` (stereo not given), for which the concentration for half-maximal inhibition (IC50) (in general, the midpoint of a concentration-inhibition curve) in [10] is 16 µM (active); in [1], 2.13 µM (active); in [2] it was 2.34 µM (active). The CC50 in assay [11] was 13.1 µM (active).
Turning to `CCN(CC)c1ccc(/C=C/[N+](=O)[O-])cc1`, the EC50 in assay [3] is 2.99 µM (active).
For the compound `Cn1sc(=O)c2ccccc21`, on Hexokinase, the IC50 was > 25 µM (inactive).
For the compound `CCN1C(c2ccccc2)=C(c2ccccc2)S/C1=C/C=C1\SC(=S)N(C)C1=O`, at Nonstructural protein 1, the IC50 is 7.78 µM (active).
Take `N=c1c(C(=O)NCC2CCCO2)cc2c(=O)n3ccccc3nc2n1Cc1ccc(Cl)cc1` (stereo not given): the half-maximal effective concentration (EC50) in [4] is > 50 µM (active).
Still for that read-out and setting: in the case of `Brc1ccc2nc(-c3c[nH]c4ccccc34)cn2c1` it was > 50 µM (active); in that of `COc1ccc(-c2nnc(SC(C)C(=O)Nc3nccs3)n2Cc2ccccc2)cc1OC` (stereo not given), > 50 µM (active).
Consider `CN1CC(C(=O)c2ccc(Cl)cc2)C(c2ccc(N(C)C)cc2)C1` (stereo not given), for which the IC50 on Nonstructural protein 1 is 43.8 µM (active).
For the compound `Cc1ccccc1C(=O)NNC(=S)NC(=O)c1ccccc1`, the IC50 in [10] is 12.6 µM (active); at Leucine aminopeptidase it was 91.2 µM (active). In addition, the concentration giving a half-maximal response (EC50) in [3] is 2.11 µM (active).
`COC(=O)c1ccc(Cl)cc1NC(=O)c1ccc(OC)cc1`: the IC50 on Hexokinase was > 25 µM (inactive).
As for `C=C(C)c1ccc(C(=O)Nc2cc(Cl)ccc2C(=O)O)cc1`, the IC50 on Hexokinase was 7.16 µM (active).
For the compound `CC(C(=O)NC1CCS(=O)(=O)C1)N1C(=O)/C(=C/c2ccc(Cl)cc2)SC1=S` (stereo not given), the 50% effective concentration (EC50) in assay [4] was > 50 µM (active).
As for `Cc1ccc(C(=O)Nc2cc(Cl)ccc2C(=O)O)cc1`, at Hexokinase, the half-inhibitory concentration (IC50) is 13.8 µM (active).
Consider `Cc1nccn1-c1ncnc2sc3c(c12)CCCC3`, for which the IC50 against Estrogen receptor beta is on record as > 50 µM (not active).
With `COC(=O)c1ccc(N2CCN(C)CC2)c(NC(=O)c2ccc(Br)o2)c1`, in assay [3], the EC50 was 5.96 µM (active).
As for `O=C(N/N=C/c1ccccn1)c1ccc(Br)o1`, the AC50 on Cytochrome P450 2C19 is 35.5 µM (inconclusive). In addition, the EC50 in [4] was > 50 µM (active).
Turning to `O=C(Nc1ccc(O)cc1C(=O)O)c1ccc2c(c1)C(=O)N(Cc1ccco1)C2=O`, the IC50 at Estrogen receptor beta is 13.8 µM (active).
